The structures appear in SMILES notation. Counter-ions that a name gives are not always drawn. Like-named read-outs stand apart in the source and are kept apart here.

The values that follow come from patent publication US20140148464A1, “SALT FORMS OF FATTY ACIDS FOR THE TREATMENT OF DRY EYE” (Thetis Pharmaceuticals LLC, priority 2012, published 2014).

The series is described as follows: Rat oral pharmacokinetics (plasma eicosapentaenoic acid after oral gavage). It counts as in vivo. As to conditions: Sprague-Dawley rats, oral gavage 40 mg/kg in 0.5% carboxymethyl cellulose, analyte EPA in plasma, mean of 6 rats. As for the experimental part:
Oral pharmacokinetic parameters of piperazine di-eicosapentaenoate, prepared by the procedure described in Example 2, were determined in Sprague-Dawley rats. Piperazine di-eicosapentaenoate was administered by oral gavage as an aqueous solution in 0.5% carboxymethyl cellulose to 6 Sprague-Dawley rats, 3 males and 3 females. Rats were dosed at 40 mg/kg. Blood samples were obtained from each rat by jugular vein catheter. […] Blood samples were centrifuged to separate red blood cells and the resulting plasma samples were analyzed for eicosapentaenoic acid. Calculated pharmacokinetic parameters shown below in Table 1 are mean values from 6 rats. […] Rats were dosed at 40 mg/kg. Blood samples were obtained from each rat by jugular vein catheter. […] Blood samples were centrifuged to separate red blood cells and the resulting plasma samples were analyzed for eicosapentaenoic acid. Calculated pharmacokinetic parameters shown below (Table 2) are mean values from 6 rats.

For the molecule `CC/C=C\C/C=C\C/C=C\C/C=C\C/C=C\CCCC(=O)O.CC/C=C\C/C=C\C/C=C\C/C=C\C/C=C\CCCC(=O)O.NCCN` [Ethylene diamine di-eicosapentaenoate, Ethane-1,2-diaminium di[(5Z,8Z,11Z,14Z,17Z)-icosa-5,8,11,14,17-pentaenoate]], the Cmax (usually the highest concentration seen after dosing) is 18370 ng/mL and the time to peak (Tmax) (commonly the time at which the peak concentration occurs) was 2.0 h. Besides, the “AUC (0-24)” value (0-24 h) was 275.29 µg·h/mL.

Regarding `CC/C=C\C/C=C\C/C=C\C/C=C\C/C=C\CCCC(=O)O` [Piperazine di-eicosapentaenoate, Bis[(5Z,8Z,11Z,14Z,17Z)-icosa-5,8,11,14,17-pentaenoatel Piperazine Salt], the AUC(0-t) (as a rule, the area under the concentration-time curve up to a stated or last time point) (both sexes, rat, 0-24 h) turned out to be 135 µg·h/mL. Under “both sexes, rat, read-out: Cmax”, the Cmax is 28200 ng/mL. The Tmax (both sexes, rat, read-out: Tmax) stood at 1 h.
